# Laboratory results: patent publication US20250135006A1, “AMPHIPHILIC TLR7/8 ADJUVANTS AND USES THEREOF” (Pfizer Inc., priority 2023, published 2025)
# Columns and labels:
# [1] = target: T1, human toll like receptor 7 (hTLR7) (Homo sapiens, UniProt Q9NYK1); assay: hTLR7 in-vitro functional assay (HEK-Blue hTLR7 SEAP reporter); type: cell-based; conditions: HEK-Blue hTLR7 cells, overnight incubation
# T1 construct: host or cells: HEK293 (HEK-Blue hTLR7)
# T1 sequence (Q9NYK1 27-1049): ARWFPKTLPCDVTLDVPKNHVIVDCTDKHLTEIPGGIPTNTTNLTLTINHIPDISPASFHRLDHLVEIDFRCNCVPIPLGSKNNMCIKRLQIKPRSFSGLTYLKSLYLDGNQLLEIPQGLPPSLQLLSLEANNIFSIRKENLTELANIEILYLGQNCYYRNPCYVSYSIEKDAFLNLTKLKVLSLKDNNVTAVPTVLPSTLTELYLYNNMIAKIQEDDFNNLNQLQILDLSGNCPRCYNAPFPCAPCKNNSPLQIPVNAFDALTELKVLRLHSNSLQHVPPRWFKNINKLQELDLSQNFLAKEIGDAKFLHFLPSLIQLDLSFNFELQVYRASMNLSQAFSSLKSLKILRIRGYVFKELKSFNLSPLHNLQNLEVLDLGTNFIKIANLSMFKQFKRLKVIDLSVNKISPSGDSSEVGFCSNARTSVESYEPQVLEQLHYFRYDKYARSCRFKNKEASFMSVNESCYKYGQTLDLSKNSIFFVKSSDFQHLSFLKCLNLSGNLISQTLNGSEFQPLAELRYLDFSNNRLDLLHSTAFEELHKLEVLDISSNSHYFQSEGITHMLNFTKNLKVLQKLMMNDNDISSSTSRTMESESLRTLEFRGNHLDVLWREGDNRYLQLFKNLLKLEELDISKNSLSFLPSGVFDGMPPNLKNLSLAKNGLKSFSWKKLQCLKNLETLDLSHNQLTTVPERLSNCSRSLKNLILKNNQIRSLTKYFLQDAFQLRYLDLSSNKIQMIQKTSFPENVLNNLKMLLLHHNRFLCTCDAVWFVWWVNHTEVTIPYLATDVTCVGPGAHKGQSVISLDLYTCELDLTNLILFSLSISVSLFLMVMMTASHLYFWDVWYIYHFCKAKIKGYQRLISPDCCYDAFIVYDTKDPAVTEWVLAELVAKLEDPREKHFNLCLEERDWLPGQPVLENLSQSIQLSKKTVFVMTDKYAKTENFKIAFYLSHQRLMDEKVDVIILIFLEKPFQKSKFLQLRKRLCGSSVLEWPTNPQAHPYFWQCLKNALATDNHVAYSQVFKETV
# [2] = target: T2, human toll like receptor 8 (hTLR8) (Homo sapiens, UniProt Q9NR97); assay: hTLR8 in-vitro functional assay (HEK-Blue hTLR8 SEAP reporter); type: cell-based; conditions: HEK-Blue hTLR8 cells, overnight incubation
# T2 construct: host or cells: HEK293 (HEK-Blue hTLR8)
# T2 sequence (Q9NR97 27-1041): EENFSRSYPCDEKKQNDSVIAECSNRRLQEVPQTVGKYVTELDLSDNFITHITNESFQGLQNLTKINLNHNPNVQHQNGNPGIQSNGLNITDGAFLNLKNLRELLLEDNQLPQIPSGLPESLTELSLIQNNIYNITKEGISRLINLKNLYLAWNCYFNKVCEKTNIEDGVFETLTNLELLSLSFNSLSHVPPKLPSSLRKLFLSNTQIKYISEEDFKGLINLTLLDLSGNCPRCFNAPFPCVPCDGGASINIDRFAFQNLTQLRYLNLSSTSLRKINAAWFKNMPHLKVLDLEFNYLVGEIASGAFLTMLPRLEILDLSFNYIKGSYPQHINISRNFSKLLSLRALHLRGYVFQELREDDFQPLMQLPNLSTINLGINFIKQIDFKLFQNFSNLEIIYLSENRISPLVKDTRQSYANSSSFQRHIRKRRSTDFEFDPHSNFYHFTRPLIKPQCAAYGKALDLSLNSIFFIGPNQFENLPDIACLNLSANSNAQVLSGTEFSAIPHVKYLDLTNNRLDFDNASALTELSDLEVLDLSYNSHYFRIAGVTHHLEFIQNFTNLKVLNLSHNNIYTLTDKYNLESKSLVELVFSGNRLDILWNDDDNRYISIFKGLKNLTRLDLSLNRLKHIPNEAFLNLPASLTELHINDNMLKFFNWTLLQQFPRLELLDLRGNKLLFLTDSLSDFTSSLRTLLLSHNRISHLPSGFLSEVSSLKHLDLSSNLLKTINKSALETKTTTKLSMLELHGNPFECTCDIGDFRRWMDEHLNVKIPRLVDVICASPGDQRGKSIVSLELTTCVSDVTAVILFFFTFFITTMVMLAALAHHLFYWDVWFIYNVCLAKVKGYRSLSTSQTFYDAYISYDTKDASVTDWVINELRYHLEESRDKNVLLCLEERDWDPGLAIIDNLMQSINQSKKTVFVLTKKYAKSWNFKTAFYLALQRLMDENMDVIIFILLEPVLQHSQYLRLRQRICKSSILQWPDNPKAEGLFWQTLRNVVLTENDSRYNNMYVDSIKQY
# [3] = tested on: RSV A strain (M37); assay: In vivo immunogenicity with RSV antigen, RSV microneutralization assay; parameters: species or system female BALB/c mice; conditions: 0.5 μg bivalent RSV antigen alone or mixed with 2 nmol adjuvant, intramuscular days 0 and 21, sera day 35
# Method: In two independent in vivo immunogenicity studies, female BALB/c mice were immunized intramuscularly twice three weeks apart (days 0 and 21) with 0.5 μg of RSV antigen alone or mixed with 2 nmol of Example 1 adjuvant (Compound 1). Sera were collected at day 35 to determine RSV neutralization antibody titers (nAb). The RSV antigen tested was bivalent comprising a RSV F Protein of Subtype A comprising the sequence of SEQ ID NO: 1 and SEQ ID NO: 2, as well as a RSV F Protein of Subtype B comprising the sequence of SEQ ID NO: 3 and SEQ ID NO: 4.
# 50% nAb responses against RSV A strain (M37) were measured by an RSV microneutralization assay at 2 weeks post dose 2.
# [4] = tested on: S. pneumoniae serotype 3; type: in vivo, female Swiss-Webster mice; conditions: mouse
smiles,measurement,setting,value
"CCCCc1nc2c(N)nc3cc(CCCN4CCN(C(=O)CCOCCOCCOCCOCCOCCOCCOCCOCCOCCOCCOCCOCCOCCOCCOCCOCCOCCOCCOCCOCCOCCOCCOCCOCCNC(=O)CCOCCOCCOCCOCCNC(=O)O[C@H]5CC[C@@]6(C)C(=CC[C@H]7[C@@H]8CC[C@H]([C@H](C)CCCC(C)C)[C@@]8(C)CC[C@@H]76)C5)CC4)ccc3c2n1CC(C)(CO)CO [Compound 1, (3beta)-cholest-5-en-3-yl {91-[4-(3-{4-amino-2-butyl-1-[3-hydroxy-2-(hydroxymethyl)-2-methylpropyl]-1H-imidazo[4,5-c]quinolin-7-yl}propyl)piperazin-1-yl]-15,91-dioxo-3,6,9,12,19,22,25,28,31,34,37,40,43,46,49,52,55,58,61,64,67,70,73,76,79,82,85,88-octacosaoxa-16-azahennonacont-1-yl}carbamate]",EC50,[1],122 nM
same,EC50,[2],1360 nM
same,"50% neutralizing antibody titers (nAb) to RSV, GMT",[3]; Study 1,7502
same,"50% neutralizing antibody titers (nAb) to RSV, GMT",[3]; Study 2,5362
same,OPA geometric mean titers (GMT),"[4]; 0.1 μg S. pneumoniae serotype 3-CRM197 antigen with adjuvant (2 nmol; AlPO4 100 μg), IM weeks 0 and 3, sera week 5",833
same,OPA geometric mean titers compared with reference adjuvants,"[4]; S. pneumoniae serotype 3 antigen, versus aluminum phosphate and free TLR 7/8 agonist","higher average OPA geometric mean titers than aluminum phosphate, as well as the free TLR 7/8 agonist molecule"
